Laboratory results reported in ChEMBL document CHEMBL5375952, “Discovery of Novel 8-Hydroxyquinoline Derivatives with Potent In Vitro and In Vivo Antifungal Activity” (J Med Chem, 2023).
Values after ≈ are worked out from the molar mass of the structure shown. Active and inactive are the calls of the source. The rule behind the calls is not given here.

What was measured:
Candida albicans [1] = test: Antifungal activity against FLC-resistant Candida albicans 710419 assessed as fungal growth inhibition incubated for 48 hrs by broth microdilution method; type: functional
Candida albicans [2] = test: Antifungal activity against FLC-resistant Candida albicans 395 assessed as fungal growth inhibition incubated for 48 hrs by broth microdilution method; type: functional
Candida albicans [3] = test: Antifungal activity against FLC-resistant Candida albicans 241 assessed as fungal growth inhibition incubated for 48 hrs by broth microdilution method; type: functional
Candida albicans [4] = test: Antifungal activity against FLC-resistant Candida albicans 646 assessed as fungal growth inhibition incubated for 48 hrs by broth microdilution method; type: functional
Candida albicans [5] = test: Antifungal activity against FLC-resistant Candida albicans 512644 assessed as fungal growth inhibition incubated for 48 hrs by broth microdilution method; type: functional
Candida albicans [6] = test: Antifungal activity against FLC-resistant Candida albicans 10 assessed as fungal growth inhibition incubated for 48 hrs by broth microdilution method; type: functional
Candida albicans [7] = test: Antifungal activity against FLC-resistant Candida albicans 953 assessed as fungal growth inhibition incubated for 48 hrs by broth microdilution method; type: functional
[8] = Antifungal activity against Cryptococcus gattii WM178 assessed as fungal growth inhibition incubated for 48 hrs by broth microdilution method; type: functional, Cryptococcus gattii VGI
[9] = Antifungal activity against Cryptococcus gattii SCZ20031 assessed as fungal growth inhibition incubated for 48 hrs by broth microdilution method; type: functional, Cryptococcus gattii VGI
Candida albicans [10] = test: Antifungal activity against Candida albicans SC5314 assessed as fungal growth inhibition incubated for 48 hrs in presence of Zn2+ by broth microdilution method; type: functional, organism-based
Candida albicans [11] = test: Antifungal activity against FLC-resistant Candida albicans 819 assessed as fungal growth inhibition incubated for 48 hrs by broth microdilution method; type: functional
Candida albicans [12] = test: Antifungal activity against FLC-resistant Candida albicans 710513 assessed as fungal growth inhibition incubated for 48 hrs by broth microdilution method; type: functional
Candida albicans [13] = test: Antifungal activity against FLC-resistant Candida albicans 385 assessed as fungal growth inhibition incubated for 48 hrs by broth microdilution method; type: functional
[14] = Toxicity in C57BL/6 mouse infected with Candida albicans SC5314 assessed as mean survival time at 2 mg/kg, ip (reference value: 5 day); type: organism-based; details: in vivo, 120 h
Candida tropicalis = test: Antifungal activity against Candida tropicalis 172 assessed as fungal growth inhibition incubated for 48 hrs by broth microdilution method; type: functional
Candida albicans [15] = test: Antifungal activity against FLC-resistant Candida albicans 1221 assessed as fungal growth inhibition incubated for 48 hrs by broth microdilution method; type: functional
Candida albicans [16] = test: Antifungal activity against FLC-resistant Candida albicans 379 assessed as fungal growth inhibition incubated for 48 hrs by broth microdilution method; type: functional
Candida albicans [17] = test: Antifungal activity against FLC-resistant Candida albicans 305 assessed as fungal growth inhibition incubated for 48 hrs by broth microdilution method; type: functional
Candida albicans [18] = test: Antifungal activity against FLC-resistant Candida albicans 304103 assessed as fungal growth inhibition incubated for 48 hrs by broth microdilution method; type: functional
Candida albicans [19] = test: Antifungal activity against Candida albicans SC5314 infected in C57BL/6 mouse assessed as mean fungal burden at 2 mg/kg, ip measured after 46 hrs by plate count method (reference value: 6.890 log10CFU/ml); type: functional
[20] = Cytotoxicity against HUVEC cells assessed as cell growth inhibition incubated for 24 hrs by CCK8 assay; type: toxicity, cell-based; details: human
Cryptococcus neoformans = test: Antifungal activity against Cryptococcus neoformans H99 assessed as fungal growth inhibition incubated for 48 hrs by broth microdilution method; type: functional
Candida albicans [21] = test: Antifungal activity against FLC-resistant Candida albicans 100 assessed as fungal growth inhibition incubated for 48 hrs by broth microdilution method; type: functional
Candida albicans [22] = test: Antifungal activity against Candida albicans SC5314 assessed as fungal growth inhibition incubated for 48 hrs in presence of Mg2+ by broth microdilution method; type: functional, organism-based
Candida albicans [23] = test: Inhibition of mature biofilm formation of Candida albicans SC5314 upto 16 ug/ml incubated for 24 hrs by XTT assay; type: functional, organism-based; details: dose <= 16.0 µg/ml
Candida albicans [24] = test: Antifungal activity against FLC-resistant Candida albicans 512681 assessed as fungal growth inhibition incubated for 48 hrs by broth microdilution method; type: functional
Candida albicans [25] = test: Antifungal activity against FLC-resistant Candida albicans 64548 assessed as fungal growth inhibition incubated for 48 hrs by broth microdilution method; type: functional
Candida albicans [26] = test: Antifungal activity against FLC-resistant Candida albicans 710506 assessed as fungal growth inhibition incubated for 48 hrs by broth microdilution method; type: functional
Candida albicans [27] = test: Antifungal activity against FLC-resistant Candida albicans 538 assessed as fungal growth inhibition incubated for 48 hrs by broth microdilution method; type: functional
Candida albicans [28] = test: Antifungal activity against Candida albicans SC5314 infected in C57BL/6 mouse assessed as mean fungal burden at 2 mg/kg, ip measured after 46 hrs by plate count method (reference value: 6.902 log10CFU/ml); type: functional
Candida albicans [29] = test: Synergistic antifungal activity against FLC-resistant Candida albicans 385 assessed as fungal growth inhibition incubated for 48 hrs in presence of FLC by broth microdilution method; type: functional
Candida albicans [30] = test: Antifungal activity against FLC-resistant Candida albicans 710554 assessed as fungal growth inhibition incubated for 48 hrs by broth microdilution method; type: functional
Candida albicans [31] = test: Antifungal activity against FLC-resistant Candida albicans 8 assessed as fungal growth inhibition incubated for 48 hrs by broth microdilution method; type: functional
Nakaseomyces glabratus = test: Antifungal activity against Candida glabrata 205 assessed as fungal growth inhibition incubated for 48 hrs by broth microdilution method; type: functional
Candida albicans [32] = test: Antifungal activity against Candida albicans SC5314 assessed as fungal growth inhibition incubated for 48 hrs in presence of Ca2+ by broth microdilution method; type: functional, organism-based
Candida albicans [33] = test: Antifungal activity against Candida albicans SC5314 assessed as fungal growth inhibition incubated for 48 hrs in presence of K+ by broth microdilution method; type: functional, organism-based
Candida albicans [34] = test: Antifungal activity against FLC-resistant Candida albicans 14 assessed as fungal growth inhibition incubated for 48 hrs by broth microdilution method; type: functional
Candida albicans [35] = test: Antifungal activity against FLC-resistant Candida albicans 249 assessed as fungal growth inhibition incubated for 48 hrs by broth microdilution method; type: functional
Candida albicans [36] = test: Antifungal activity against Candida albicans 25 assessed as fungal growth inhibition incubated for 48 hrs by broth microdilution method; type: functional
Candida albicans [37] = test: Antifungal activity against FLC-resistant Candida albicans 12 assessed as fungal growth inhibition incubated for 48 hrs by broth microdilution method; type: functional
Candida albicans [38] = test: Antifungal activity against FLC-resistant Candida albicans 710452 assessed as fungal growth inhibition incubated for 48 hrs by broth microdilution method; type: functional
Candida albicans [39] = test: Antifungal activity against FLC-resistant Candida albicans 11 assessed as fungal growth inhibition incubated for 48 hrs by broth microdilution method; type: functional
Candida albicans [40] = test: Antifungal activity against FLC-resistant Candida albicans 17 assessed as fungal growth inhibition incubated for 48 hrs by broth microdilution method; type: functional
Candida albicans [41] = test: Antifungal activity against FLC-resistant Candida albicans 540 assessed as fungal growth inhibition incubated for 48 hrs by broth microdilution method; type: functional
Candida albicans [42] = test: Antifungal activity against FLC-resistant Candida albicans 605141 assessed as fungal growth inhibition incubated for 48 hrs by broth microdilution method; type: functional
Candida albicans [43] = test: Antifungal activity against FLC-resistant Candida albicans 5740 assessed as fungal growth inhibition incubated for 48 hrs by broth microdilution method; type: functional

CCN(CC)c1ccc(C(NC(=O)C(C)C)c2ccc3cccnc3c2O)cc1 (stereo unspecified)
MIC (Candida albicans [1]): 0.5 µg/mL (≈ 1.28 µM) | MIC (Candida albicans [2]): 0.125 µg/mL (≈ 0.319 µM) | MIC (Candida albicans [3]): 0.5 µg/mL (≈ 1.28 µM) | MIC (Candida albicans [4]): 0.125 µg/mL (≈ 0.319 µM) | MIC (Candida albicans [5]): 0.25 µg/mL (≈ 0.639 µM) | MIC (Candida albicans [6]): 0.125 µg/mL (≈ 0.319 µM) | MIC (Candida albicans [7]): 0.5 µg/mL (≈ 1.28 µM) | MIC [8]: 0.031 µg/mL (≈ 0.0792 µM) | MIC [9]: 0.031 µg/mL (≈ 0.0792 µM) | growth inhibition (GI) (Candida albicans [10]): Active | MIC (Candida albicans [11]): 0.125 µg/mL (≈ 0.319 µM) | MIC (Candida albicans [12]): 0.5 µg/mL (≈ 1.28 µM) | MIC (Candida albicans [13]): 0.125 µg/mL (≈ 0.319 µM) | Survival [14]: 6.5 days | MIC (Candida tropicalis): 0.063 µg/mL (≈ 0.161 µM) | MIC (Candida albicans [15]): 0.25 µg/mL (≈ 0.639 µM) | MIC (Candida albicans [16]): 0.25 µg/mL (≈ 0.639 µM) | MIC (Candida albicans [17]): 0.5 µg/mL (≈ 1.28 µM) | MIC (Candida albicans [18]): 0.25 µg/mL (≈ 0.639 µM) | Activity (Candida albicans [19]): 6.283 log10CFU/g | IC50 at 24 h [20]: 67.8 µg/mL (≈ 173 µM) | MIC (Cryptococcus neoformans): 0.125 µg/mL (≈ 0.319 µM) | MIC (Candida albicans [21]): 0.125 µg/mL (≈ 0.319 µM) | growth inhibition (GI) (Candida albicans [22]): Active | inhibition (Candida albicans [23]): inactive | MIC (Candida albicans [24]): 0.25 µg/mL (≈ 0.639 µM) | MIC (Candida albicans [25]): 0.5 µg/mL (≈ 1.28 µM) | MIC (Candida albicans [26]): 1 µg/mL (≈ 2.55 µM) | MIC (Candida albicans [27]): 0.25 µg/mL (≈ 0.639 µM) | Activity (Candida albicans [28]): 6.318 log10CFU/ml | MIC (Candida albicans [29]): 0.008 µg/mL | MIC (Candida albicans [30]): 0.5 µg/mL (≈ 1.28 µM) | MIC (Candida albicans [31]): 0.125 µg/mL (≈ 0.319 µM) | MIC (Nakaseomyces glabratus): 0.125 µg/mL (≈ 0.319 µM) | growth inhibition (GI) (Candida albicans [32]): Active | growth inhibition (GI) (Candida albicans [33]): Active | MIC (Candida albicans [34]): 0.125 µg/mL (≈ 0.319 µM) | MIC (Candida albicans [35]): 0.25 µg/mL (≈ 0.639 µM) | MIC (Candida albicans [36]): 0.063 µg/mL (≈ 0.161 µM) | MIC (Candida albicans [37]): 0.25 µg/mL (≈ 0.639 µM) | MIC (Candida albicans [38]): 0.125 µg/mL (≈ 0.319 µM) | MIC (Candida albicans [39]): 0.25 µg/mL (≈ 0.639 µM) | MIC (Candida albicans [40]): 0.5 µg/mL (≈ 1.28 µM) | MIC (Candida albicans [41]): 0.25 µg/mL (≈ 0.639 µM) | MIC (Candida albicans [42]): 0.5 µg/mL (≈ 1.28 µM) | MIC (Candida albicans [43]): 0.063 µg/mL (≈ 0.161 µM)

OC(Cn1cncn1)(Cn1cncn1)c1ccc(F)cc1F [FLUCONAZOLE]
MIC (Candida albicans [1]): > 64 µg/mL | MIC (Candida albicans [2]): 32 µg/mL (≈ 104 µM) | MIC (Candida albicans [3]): > 64 µg/mL | MIC (Candida albicans [4]): > 64 µg/mL | MIC (Candida albicans [5]): > 64 µg/mL | MIC (Candida albicans [6]): 32 µg/mL (≈ 104 µM) | MIC (Candida albicans [7]): > 64 µg/mL | MIC [8]: 4 µg/mL (≈ 13.1 µM) | MIC [9]: 4 µg/mL (≈ 13.1 µM) | MIC (Candida albicans [11]): 32 µg/mL (≈ 104 µM) | MIC (Candida albicans [12]): > 64 µg/mL | MIC (Candida albicans [13]): > 64 µg/mL | MIC (Candida tropicalis): 0.125 µg/mL (≈ 0.408 µM) | MIC (Candida albicans [15]): > 64 µg/mL | MIC (Candida albicans [16]): > 64 µg/mL | MIC (Candida albicans [17]): > 64 µg/mL | MIC (Candida albicans [18]): 32 µg/mL (≈ 104 µM) | IC50 at 24 h [20]: 9.18 µg/mL (≈ 30 µM) | MIC (Cryptococcus neoformans): 8 µg/mL (≈ 26.1 µM) | MIC (Candida albicans [21]): 16 µg/mL (≈ 52.2 µM) | inhibition (Candida albicans [23]): inactive | MIC (Candida albicans [24]): > 64 µg/mL | MIC (Candida albicans [25]): > 64 µg/mL | MIC (Candida albicans [26]): > 64 µg/mL | MIC (Candida albicans [27]): > 64 µg/mL | MIC (Candida albicans [30]): > 64 µg/mL | MIC (Candida albicans [31]): 16 µg/mL (≈ 52.2 µM) | MIC (Nakaseomyces glabratus): 1 µg/mL (≈ 3.27 µM) | MIC (Candida albicans [34]): 32 µg/mL (≈ 104 µM) | MIC (Candida albicans [35]): 32 µg/mL (≈ 104 µM) | MIC (Candida albicans [36]): 0.5 µg/mL (≈ 1.63 µM) | MIC (Candida albicans [37]): 32 µg/mL (≈ 104 µM) | MIC (Candida albicans [38]): > 64 µg/mL | MIC (Candida albicans [39]): 32 µg/mL (≈ 104 µM) | MIC (Candida albicans [40]): 32 µg/mL (≈ 104 µM) | MIC (Candida albicans [41]): > 64 µg/mL | MIC (Candida albicans [42]): > 64 µg/mL | MIC (Candida albicans [43]): 32 µg/mL (≈ 104 µM)

Oc1c(I)cc(Cl)c2cccnc12 [CLIOQUINOL]
MIC [8]: 0.031 µg/mL (≈ 0.101 µM) | MIC [9]: 0.031 µg/mL (≈ 0.101 µM) | growth inhibition (GI) (Candida albicans [10]): Active | Survival [14]: 5 days | MIC (Candida tropicalis): 0.125 µg/mL (≈ 0.409 µM) | Activity (Candida albicans [19]): 6.683 log10CFU/g | MIC (Cryptococcus neoformans): 0.125 µg/mL (≈ 0.409 µM) | growth inhibition (GI) (Candida albicans [22]): Active | MIC (Nakaseomyces glabratus): 0.25 µg/mL (≈ 0.818 µM) | growth inhibition (GI) (Candida albicans [32]): Active | growth inhibition (GI) (Candida albicans [33]): Active | MIC (Candida albicans [36]): 0.125 µg/mL (≈ 0.409 µM)
